# Key:
# [1] = test system: direct sown rice; assay: Herbicidal effect test by foliage treatment; format: in vivo, Oryza sativa; settings: 1.6 g/a; foliage treatment after growth of 14 days; 3 weeks after treatment
# Summary of the method: (§1)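 Seeds sown in sterilized diluvial soil, covered with about 1.5 cm soil and grown 14 days in a greenhouse at 25 to 30° C. Foliage then sprayed uniformly with water-diluted wettable powder at a predetermined formulation amount; herbicidal effect scored 3 weeks after treatment.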
# [2] = test system: Abutilon avicennae; assay: Herbicidal effect test by foliage treatment; format: in vivo; settings: 1.6 g/a; foliage treatment after growth of 14 days; 3 weeks after treatment
# Summary of the method: as §1
# [3] = test system: corn (Zea mays); assay: Herbicidal effect test by foliage treatment; format: in vivo; settings: 1.6 g/a; foliage treatment after growth of 14 days; 3 weeks after treatment
# Summary of the method: as §1
# [4] = test system: Setaria viridis; assay: Herbicidal effect test by foliage treatment; format: in vivo; settings: 1.6 g/a; foliage treatment after growth of 14 days; 3 weeks after treatment
# Summary of the method: as §1
# [5] = test system: Chenopodium album; assay: Herbicidal effect test by foliage treatment; format: in vivo; settings: 1.6 g/a; foliage treatment after growth of 14 days; 3 weeks after treatment
# Summary of the method: as §1
# [6] = test system: Amaranthus retroflexus; assay: Herbicidal effect test by foliage treatment; format: in vivo; settings: 1.6 g/a; foliage treatment after growth of 14 days; 3 weeks after treatment
# Summary of the method: as §1
# [7] = test system: Polygonum blumei; assay: Herbicidal effect test by foliage treatment; format: in vivo; settings: 1.6 g/a; foliage treatment after growth of 14 days; 3 weeks after treatment
# Summary of the method: as §1
# [8] = test system: Echinochloa crus-galli; assay: Herbicidal effect test by foliage treatment; format: in vivo; settings: 1.6 g/a; foliage treatment after growth of 14 days; 3 weeks after treatment
# Summary of the method: as §1
# [9] = test system: Black-grass; assay: Herbicidal effect test by foliage treatment; format: in vivo; settings: 1.6 g/a; foliage treatment after growth of 14 days; 3 weeks after treatment
# Summary of the method: as §1
# [10] = test system: Beta vulgaris (beet); assay: Herbicidal effect test by foliage treatment; format: in vivo; settings: 1.6 g/a; foliage treatment after growth of 14 days; 3 weeks after treatment
# Summary of the method: as §1
# [11] = test system: Avena fatua; assay: Herbicidal effect test by foliage treatment; format: in vivo; settings: 1.6 g/a; foliage treatment after growth of 14 days; 3 weeks after treatment
# Summary of the method: as §1
# [12] = test system: Digitaria adscendes; assay: Herbicidal effect test by foliage treatment; format: in vivo; settings: 1.6 g/a; foliage treatment after growth of 14 days; 3 weeks after treatment
# Summary of the method: as §1
# [13] = test system: Ambrosia elatior; assay: Herbicidal effect test by foliage treatment; format: in vivo; settings: 1.6 g/a; foliage treatment after growth of 14 days; 3 weeks after treatment
# Summary of the method: as §1
# [14] = test system: soybean (Glycine max); assay: Herbicidal effect test by foliage treatment; format: in vivo; settings: 1.6 g/a; foliage treatment after growth of 14 days; 3 weeks after treatment
# Summary of the method: as §1
# [15] = test system: Stellaria media; assay: Herbicidal effect test by foliage treatment; format: in vivo; settings: 1.6 g/a; foliage treatment after growth of 14 days; 3 weeks after treatment
# Summary of the method: as §1
# [16] = test system: Triticum aestivum (wheat); assay: Herbicidal effect test by foliage treatment; format: in vivo; settings: 1.6 g/a; foliage treatment after growth of 14 days; 3 weeks after treatment
# Summary of the method: as §1
# [17] = test system: Abutilon avicennae; assay: Herbicidal effect test by soil treatment; format: in vivo; settings: 1.6 g/a, 3 weeks after treatment
# Summary of the method: (§2)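 Seeds were sown in sterilized diluvial soil and covered with about 1.5 cm of soil. A wettable powder diluted in water to a predetermined formulation amount was sprayed uniformly on the soil surface. Herbicidal effect was scored visually 3 weeks after treatment.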
# [18] = test system: corn (Zea mays); assay: Herbicidal effect test by soil treatment; format: in vivo; settings: 1.6 g/a, 3 weeks after treatment
# Summary of the method: as §2
# [19] = test system: Setaria viridis; assay: Herbicidal effect test by soil treatment; format: in vivo; settings: 1.6 g/a, 3 weeks after treatment
# Summary of the method: as §2
# [20] = test system: Chenopodium album; assay: Herbicidal effect test by soil treatment; format: in vivo; settings: 1.6 g/a, 3 weeks after treatment
# Summary of the method: as §2
# [21] = test system: Amaranthus retroflexus; assay: Herbicidal effect test by soil treatment; format: in vivo; settings: 1.6 g/a, 3 weeks after treatment
# Summary of the method: as §2
# [22] = test system: Polygonum blumei; assay: Herbicidal effect test by soil treatment; format: in vivo; settings: 1.6 g/a, 3 weeks after treatment
# Summary of the method: as §2
# [23] = test system: Echinochloa crus-galli; assay: Herbicidal effect test by soil treatment; format: in vivo; settings: 1.6 g/a, 3 weeks after treatment
# Summary of the method: as §2
# [24] = test system: Black-grass; assay: Herbicidal effect test by soil treatment; format: in vivo; settings: 1.6 g/a, 3 weeks after treatment
# Summary of the method: as §2
# [25] = test system: Beta vulgaris (beet); assay: Herbicidal effect test by soil treatment; format: in vivo; settings: 1.6 g/a, 3 weeks after treatment
# Summary of the method: as §2
# [26] = test system: Avena fatua; assay: Herbicidal effect test by soil treatment; format: in vivo; settings: 1.6 g/a, 3 weeks after treatment
# Summary of the method: as §2
# [27] = test system: Digitaria adscendes; assay: Herbicidal effect test by soil treatment; format: in vivo; settings: 1.6 g/a, 3 weeks after treatment
# Summary of the method: as §2
# [28] = test system: Ambrosia elatior; assay: Herbicidal effect test by soil treatment; format: in vivo; settings: 1.6 g/a, 3 weeks after treatment
# Summary of the method: as §2
# [29] = test system: soybean (Glycine max); assay: Herbicidal effect test by soil treatment; format: in vivo; settings: 1.6 g/a, 3 weeks after treatment
# Summary of the method: as §2
# [30] = test system: Stellaria media; assay: Herbicidal effect test by soil treatment; format: in vivo; settings: 1.6 g/a, 3 weeks after treatment
# Summary of the method: as §2
# [31] = test system: Triticum aestivum (wheat); assay: Herbicidal effect test by soil treatment; format: in vivo; settings: 1.6 g/a, 3 weeks after treatment
# Summary of the method: as §2
# [32] = test system: Monochoria vaginalis; assay: Herbicidal effect test in submerged condition by treatment during weed-growth stage (1); format: in vivo; settings: 0.64 g/a, treated at 1st to 2nd leaf stage, 3 weeks after treatment
# Summary of the method: (§3)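 Paddy-soil pots flooded to 4 cm water depth were sown and grown in a greenhouse at 25 to 30° C until weeds reached 1st to 2nd leaf stage. A wettable powder diluted in water to a predetermined formulation amount was applied to the water surface. Herbicidal effect was scored 3 weeks after treatment against set criteria.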
# [33] = test system: Echinochloa crus-galli; assay: as above; format: in vivo; settings: 0.64 g/a, treated at 1st to 2nd leaf stage, 3 weeks after treatment
# Summary of the method: as §3
# [34] = test system: Scirpus juncoides; assay: as above; format: in vivo; settings: 0.64 g/a, treated at 1st to 2nd leaf stage, 3 weeks after treatment
# Summary of the method: as §3
# [35] = test system: Monochoria vaginalis; assay: Herbicidal effect test in submerged condition by treatment before weed-generation (1); format: in vivo; settings: 0.64 g/a, water surface treated on day of sowing, 3 weeks after treatment
# Summary of the method: (§4)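 Alluvial soil flooded to 4 cm depth; weeds sown and rice seedlings (2.5-leaf stage) transplanted, then wettable powder diluted in water applied to the water surface on sowing day. Greenhouse at 25 to 30° C; herbicidal effect scored 0–5 after 3 weeks (5 = ≥90% kill, 0 = ≤5%).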
# [36] = test system: Echinochloa crus-galli; assay: as above; format: in vivo; settings: 0.64 g/a, water surface treated on day of sowing, 3 weeks after treatment
# Summary of the method: as §4
# [37] = test system: Scirpus juncoides; assay: as above; format: in vivo; settings: 0.64 g/a, water surface treated on day of sowing, 3 weeks after treatment
# Summary of the method: as §4
# [38] = test system: direct sown rice; assay: Herbicidal effect test by soil treatment; format: in vivo, Oryza sativa; settings: 1.6 g/a, 3 weeks after treatment
# Summary of the method: as §2
structure (smiles),measurement,setting,value
"COc1cc(OC)nc(NC(=O)NS(=O)(=O)c2c(C3=NOCC(C)(CI)O3)c(C)nn2C)n1 (centres unmarked) [Compound 8, N-((4,6-dimethoxypyrimidin-2-yl)aminocarbonyl)-4-(5-iodomethyl-5-methyl-5H,6H-1,4,2-dioxadin-3-yl)-1,3-dimethylpyrazole-5-sulfonamide]","herbicidal effect, d: direct sown rice",[1],1 (Herbicidal rate 5% or more and less than 20%)
same,"herbicidal effect, H: Abutilon avicennae",[2],5 (Herbicidal rate 90% or more (almost complete death))
same,"herbicidal effect, b: corn (Zea mays)",[3],4 (Herbicidal rate 70% or more and less than 90%)
same,"herbicidal effect, E: Setaria viridis",[4],4 (Herbicidal rate 70% or more and less than 90%)
same,"herbicidal effect, K: Chenopodium album",[5],4 (Herbicidal rate 70% or more and less than 90%)
same,"herbicidal effect, J: Amaranthus retroflexus",[6],4 (Herbicidal rate 70% or more and less than 90%)
same,"herbicidal effect, L: Polygonum blumei",[7],4 (Herbicidal rate 70% or more and less than 90%)
same,"herbicidal effect, A: Echinochloa crus-galli",[8],4 (Herbicidal rate 70% or more and less than 90%)
same,"herbicidal effect, G: Black-grass",[9],0 (Herbicidal rate 5% or less (little effect))
same,"herbicidal effect, f: Beta vulgaris (beet)",[10],4 (Herbicidal rate 70% or more and less than 90%)
same,"herbicidal effect, F: Avena fatua",[11],1 (Herbicidal rate 5% or more and less than 20%)
same,"herbicidal effect, D: Digitaria adscendes",[12],3 (Herbicidal rate 40% or more and less than 70%)
same,"herbicidal effect, I: Ambrosia elatior",[13],4 (Herbicidal rate 70% or more and less than 90%)
same,"herbicidal effect, c: soybean (Glycine max)",[14],4 (Herbicidal rate 70% or more and less than 90%)
same,"herbicidal effect, M: Stellaria media",[15],4 (Herbicidal rate 70% or more and less than 90%)
same,"herbicidal effect, e: Triticum aestivum (wheat)",[16],1 (Herbicidal rate 5% or more and less than 20%)
same,"herbicidal effect, H: Abutilon avicennae",[17],0 (Herbicidal rate 5% or less (little effect))
same,"herbicidal effect, b: corn (Zea mays)",[18],0 (Herbicidal rate 5% or less (little effect))
same,"herbicidal effect, E: Setaria viridis",[19],0 (Herbicidal rate 5% or less (little effect))
same,"herbicidal effect, K: Chenopodium album",[20],2 (Herbicidal rate 20% or more and less than 40%)
same,"herbicidal effect, J: Amaranthus retroflexus",[21],5 (Herbicidal rate 90% or more (almost complete death))
same,"herbicidal effect, L: Polygonum blumei",[22],5 (Herbicidal rate 90% or more (almost complete death))
same,"herbicidal effect, A: Echinochloa crus-galli",[23],1 (Herbicidal rate 5% or more and less than 20%)
same,"herbicidal effect, G: Black-grass",[24],3 (Herbicidal rate 40% or more and less than 70%)
same,"herbicidal effect, f: Beta vulgaris (beet)",[25],2 (Herbicidal rate 20% or more and less than 40%)
same,"herbicidal effect, F: Avena fatua",[26],0 (Herbicidal rate 5% or less (little effect))
same,"herbicidal effect, D: Digitaria adscendes",[27],3 (Herbicidal rate 40% or more and less than 70%)
same,"herbicidal effect, I: Ambrosia elatior",[28],5 (Herbicidal rate 90% or more (almost complete death))
same,"herbicidal effect, c: soybean (Glycine max)",[29],0 (Herbicidal rate 5% or less (little effect))
same,"herbicidal effect, M: Stellaria media",[30],4 (Herbicidal rate 70% or more and less than 90%)
same,"herbicidal effect, e: Triticum aestivum (wheat)",[31],1 (Herbicidal rate 5% or more and less than 20%)
same,"herbicidal effect, C: Monochoria vaginalis",[32],4 (Herbicidal rate 70% or more and less than 90%)
same,"herbicidal effect, A: Echinochloa crus-galli",[33],4 (Herbicidal rate 70% or more and less than 90%)
same,"herbicidal effect, B: Scirpus juncoides",[34],4 (Herbicidal rate 70% or more and less than 90%)
same,"herbicidal effect, C: Monochoria vaginalis",[35],5 (Herbicidal rate 90% or more (almost complete death))
same,"herbicidal effect, A: Echinochloa crus-galli",[36],3 (Herbicidal rate 40% or more and less than 70%)
same,"herbicidal effect, B: Scirpus juncoides",[37],4 (Herbicidal rate 70% or more and less than 90%)
same,"herbicidal effect, d: direct sown rice",[38],2 (Herbicidal rate 20% or more and less than 40%)
